Reference: patent US20170216297A1, “EFFICIENT INHIBITION OF HSP27” (TECHNISCHE UNIVERSITAET DRESDEN, priority 2014, published 2017)
pKd: −log10 of the molar value. Read-outs that look alike come from different tables or passages of the source. One block for each compound: values may come before it.

What was measured:
[1] = target: T1, HSP27 (Homo sapiens, UniProt P04792); test: Bio-layer interferometry (ForteBio Octet Red 384, biotinylated HSP27 on SSA sensors); type: binding
Source text: Bio-layer interferometry is a technique for detecting biomolecular interactions. It is an analytical technique that measures the optical interference of white light which is reflected by two surfaces: in each case, one surface consists of a layer of the immobilized target protein on the tip of the biosensor and one is an internal reference surface. The binding of ligands to the target protein alters the interference pattern and can be measured in real time.
For the measurements, an instrument of the ForteBio Octet Red 384 brand was used. The target protein HSP27 was biotinylated and bound to the appropriate sensors (SSA). […] The purine derivatives of general formula (I) or (II) pre-identified by means of in silico screening are employed for these measurements in a concentration range (KD) of between 333 μmol/L and 10 nmol/L.
For measurements by bio-layer interferometry, biotinylated HSP27 protein was first bound to Super-Streptavidin sensors (SSA, Fortebio). The loaded sensors were then incubated (“quenched”) with biocytin. As reference, unloaded SSA sensors were incubated with biocytin. In the case of a specific binding to HSP27 of the analyte to be measured, the loaded HSP27 sensor generates a stronger signal (response) than the concurrent reference sensor. After the “baseline” has been established by incubation with the reaction buffer (PBST 0.1% Tween 20 plus 3% DMSO), first the association and then the dissociation of the respective analyte is measured in real time. The analytes were measured in increasing concentrations in each case: 1.23-3.7-11.11-33.33-100-300 μM/l.

[2] = target: T1, HSP27; test: Spectrophotometric protein aggregation assay (citrate synthase heat denaturation, HSP27 chaperone function); type: biochemical; details: 43° C., 500 nm
Experimental: FIG. 1: a spectrophotometric protein aggregation assay at 43° C., a wavelength of 500 nm and a concentrations of the proteins: 1.44 μmol/L citrate synthase (CS), 481 nmol/L HSP27 (HSP) in a 40 mmol/L HEPES buffer (pH 7.4) during treatment with 14 or 28 μmol/L 2-(3-trichlorovinylphenylamino)-1,9-dihydropurin-6-one (CS+HSP+test substance no. 2), with 750 μmol/L BVDU (CS+HSP+BVDU) and without (CS+HSP; reference);
A known client protein (=substrate on which HSP27 acts as a chaperone) of HSP27 is citrate synthase. Citrate synthase is denatured when the temperature increases to 43° C. This heat denaturation is prevented or delayed by the presence of HSP27 [Jakob U, 1993]. By adding the novel active ingredients, their efficacy can thus be measured through the inhibition of the HSP27 chaperone function.
To determine the activity (i.e. the effect on the aggregation behaviour of the citrate synthase (CS) after thermal incubation) of 2-(3-trichlorovinylphenylamino)-1,9-dihydropurin-6-one in comparison to BVDU, four different batches containing 1.44 μmol/L CS, 481 nmol/L HSP27 (HSP) in a 40 mmol/L HEPES buffer (pH 7.4) were prepared and BVDU (750 μmol/L) or various concentrations of 2-(3-trichlorovinylphenylamino)-1,9-dihydropurin-6-one (14 μmol/L; 28 μmol/L) were added. The samples were then incubated at 43° C. and the aggregation behaviour of the CS was monitored in a spectrometer (PerkinElmer LS55, PerkinElmer Inc.) at a wavelength of 500 nm.
It can be seen from FIG. 1 that the protein citrate synthase (graph CS alone) is denatured by increasing the temperature to 43° C. and forms aggregates. The aggregation is measured in the spectrometer at 500 nm (light scattering by protein aggregates). The presence of HSP27 (HSP) counteracts the aggregation (cf. graph, CS+HSP). Since the addition of the test substances (BVDU and 2-(3-trichlorovinylphenylamino)-1,9-dihydropurin-6-one) inhibits the chaperone function of HSP27, the activity of the respective test substance can be determined by measuring the aggregation behaviour of the CS.

[3] = target: T1, HSP27; test: Capillary electrophoresis of the CS protein precipitates (precipitated citrate synthase as measure of HSP27 inhibition); type: biochemical; details: for times higher activity than BVDU for the inhibition of the HSP27 protein: 120 minutes
Experimental: (§1) Since the heat-denatured protein aggregates of the citrate synthase from Example 1 are not water-soluble, these can be separated completely from the supernatant by means of centrifugation at room temperature at 16,000×g, 10 min. By using capillary electrophoresis, the compositions of the separated precipitates can be shown and quantified. The relative quantity of protein of precipitated citrate synthase serves as a measure of the efficacy of the test substances.
(§2) In each case, 481 nmol/L HSP27 and 1.44 μmol/L citrate synthase in 40 mmol/L HEPES buffer, pH 7.4, were employed. The relative quantity of protein of the precipitated citrate synthase in each case was normalized using a defined quantity of BSA as internal standard. The relative quantity of protein that precipitated when using 750 μmol/L BVDU was set at 1. The other test substances (2 representatives of phenothiazine derivatives of general formula (V), 2 representatives of purine derivatives of formula (I) or (II)) were each employed at a concentration of 10 μmol/L.
as §1, with “Example 2” for “Example 1”
as §2, with “nM” for “nmol/L”, “thymine” for “purine”, “were” for “were each”, “μmol/L in each case.” for “μmol/L.”
Otherwise, the experiments were performed as described above: […]

[4] = tested on: RPMI-8226 cells; test: Development of resistance to bortezomib in RPMI-8226 cells; type: cell-based
Experimental: The cell line RPMI-8226 (DMSZ 402) is a “multiple myeloma” cell line and was chosen because bortezomib is employed as a standard therapy for multiple myeloma. RPMI-8226 cells respond to bortezomib, express HSP27 and develop resistance to Velcade. RPMI-8226 cells were seeded at a cell count of 100,000 cells/ml in each case and regularly passaged. […] In contrast, for RPMI 8226 cells that were treated with 30 μmol/L BVDU, a final cell count of 160,000 cells/ml was detected whereas the final cell count for the culture without the addition of an HSP27 inhibitor amounted to 350,000 cells/ml. As a control, RPMI 8226 cells were treated with the respective test substances alone, FIG. 4b.

[5] = tested on: U937 cells; test: Development of resistance to bortezomib in U937 cells; type: cell-based; details: Examples 17/18: bortezomib 0.1-0.5 ng/ml, plus 0.75 μmol/L inhibitor
Experimental: For this purpose, U937 cells (histiocytic lymphoma) were cultured in DMEM culture medium (+10% FCS) at 37° C., 5% CO2 in an H2O-saturated atmosphere. 100,000 cells/ml were seeded and incubated with the cytostatic agent bortezomib (0.1 ng/ml) and the respective test substance (dosage in the current experiment: 1 μM/L acepromazine). The reference substance, BVDU, was employed at a concentration of 30 μM/L. The cells were in each case passaged before the cell count reached 1,000,000 cells/ml. At each passage, 100,000 cells/ml were again seeded and the dose of the cytostatic agent bortezomib was increased stepwise (0.1 ng/mL or 0.05 ng/mL). The concentration of the test substances remained constant. As a result of the stepwise increase in the dosage of the cytostatic agent, resistance developed in the U937 cells. The development of resistance is prevented or inhibited in the case of a positively tested HSP27 inhibitor. The experiments from Example 6 were repeated in the same way, wherein U937 cells (histiocytic lymphoma) are cultured in DMEM culture medium (+10% FCS) at 37° C., 5% CO2 in an H2O— saturated atmosphere. 100,000 cells/ml were seeded and incubated with an initial concentration of 0.2 ng/ml of the cytostatic agent bortezomib and both without an inhibitor and with acepromazine as an HSP27 inhibitor at a concentration of 1 μM/L. The reference substance, BVDU, was employed at a concentration of 30 μM/L. The cells were passaged in each case before the cell count reached 1,000,000 cells/ml. At each passage, 100,000 cells/ml were again seeded and the dose of the cytostatic agent bortezomib was increased stepwise by 0.1 ng/mL. The concentration of the test substance and the reference substance remained constant. As a result of the stepwise increase in the dosage of the cytostatic agent, resistance developed in the U937 cells. The development of resistance is prevented or inhibited in the case of a positively tested HSP27 inhibitor. The cell line U-937 is a histiocytic lymphoma (DSMZ ACC 5). This cell line also responds to treatment with bortezomib, expresses HSP27 and develops resistance to bortezomib. Bortezomib is not the standard therapy for this lymphoma, but is being discussed as a possible therapeutic agent. U-937 cells were seeded with a cell count of 100,000 cells/ml in each case and regularly passaged. […] At the end of the experiment, 70,000 living cells per ml medium could be detected. For the treatment with 30 μmol/L BVDU, a final cell count of 250,000 cells/ml was detected whereas the final cell count in the culture without the addition of an HSP27 inhibitor amounted to 450,000 cells/ml. As a control, U-937 cells were treated with the respective test substances alone, FIG. 10b.

[6] = cited from earlier work
[7] = analytes 1.23-300 μM/l, PBST 0.1% Tween 20 plus 3% DMSO, read-out: Dissociation constant KD
[8] = 10 μmol/L, 43° C. for 120 minutes, 750 μmol/L BVDU set at 1
[9] = bortezomib 0.1-0.3 ng/ml, plus 1 μM inhibitor
[10] = bio-layer interferometry, read-out: KD
[11] = bortezomib 0.075-0.275 ng/ml, plus 1 μmol/L inhibitor

T1 sequence (P04792 whole entry): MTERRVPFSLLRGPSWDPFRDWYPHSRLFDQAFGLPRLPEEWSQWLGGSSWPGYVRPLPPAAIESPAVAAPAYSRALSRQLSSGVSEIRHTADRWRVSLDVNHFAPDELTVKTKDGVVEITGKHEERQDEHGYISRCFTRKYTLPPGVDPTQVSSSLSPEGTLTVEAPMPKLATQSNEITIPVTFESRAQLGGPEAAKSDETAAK

Compound: O=c1nc(Nc2cccc(CO)c2)[nH]c2nc[nH]c12 [2-(3-Hydroxymethylphenylamino)-3,7-dihydropurin-6-one]
pKd [1, 7]: 3.15

Compound: O=c1[nH]c(Nc2cccc(C(Cl)=C(Cl)Cl)c2)nc2[nH]cnc12 [2-(3-trichlorovinylphenylamino)-1,9-dihydropurin-6-one]
Inhibition of HSP27 chaperone function (CS aggregation), effect versus 750 μmol/L BVDU ([2]; 14 μmol/L): comparable effect | Inhibition of HSP27 chaperone function (CS aggregation), effect versus 750 μmol/L BVDU ([2]; 28 μmol/L): significantly more pronounced effect | Rel. quantity of protein prec. CS [3, 8]: 0.71 | times higher activity than BVDU for the inhibition of the HSP27 protein ([3]; 10 μmol/L): 53 times | development of resistance to bortezomib [4, 9]: significantly inhibited

Compound: CCCCc1ccc(Nc2nc3c(ncn3COCCO)c(=O)[nH]2)cc1 [2-(4-butylphenylamino)-9-(2-hydroxyethoxymethyl)-1,9-dihydropurin-6-one]
pKd [1, 10]: 4.82 | Efficacy compared with BVDU ([3]; 10 μmol/L vs 750 μmol/L BVDU, 43° C. for 120 minutes): 69.0 x | Rel. quantity of protein prec. CS [3, 8]: 0.92 | times higher activity than BVDU for the inhibition of the HSP27 protein ([3]; 10 μmol/L): 69 times | development of resistance to bortezomib [5]: significantly inhibited | development of resistance to bortezomib [4, 9]: significantly inhibited

Compound: Cc1cn(CC=CCNC(=O)Cc2ccc(-c3ccccc3)cc2)c(=O)[nH]c1=O [2-biphenyl-4-yl-N-[4-(5-methyl-2,4-dioxo-3,4-dihydro-2H-pyrimidin-1-yl)-but-2-enyl]-acetamide]
pKd [1, 7]: 3.37 | Rel. quantity of protein prec. CS [3, 8]: 0.81 | times higher activity than BVDU for the inhibition of the HSP27 protein ([3]; 10 μmol/L): 61 times | development of resistance to bortezomib [4, 11]: significantly inhibited

Compound: O=c1[nH]c(=O)n([C@H]2C[C@H](O)[C@@H](CO)O2)cc1-c1ccccc1 [5-Phenyl-2′-deoxyuridine]
pKd [1, 7]: 4.22

Continued, in another order:

pKd [1, 7]: 3.57 | Rel. quantity of protein prec. CS [3, 8]: 0.65 | times higher activity than BVDU for the inhibition of the HSP27 protein ([3]; 10 μmol/L): 49 times
Compound: Cc1cn(CC=CCNC(=O)C2c3ccccc3Oc3ccccc32)c(=O)[nH]c1=O [9H-xanthene-9-carboxylic acid [4-(5-methyl-2,4-dioxo-3,4-dihydro-2H-pyrimidin-1-yl)-but-2-enyl]amide]
development of resistance to bortezomib [4, 11]: significantly inhibited

Rel. quantity of protein prec. CS ([3]; 750 μmol/L, 43° C. for 70 minutes, set at 1): 1 | Rel. quantity of protein prec. CS ([3]; 750 μmol/L, 43° C. for 120 minutes, set at 1): 1
Compound: O=c1[nH]c(=O)n([C@H]2C[C@H](O)[C@@H](CO)O2)cc1/C=C/Br [BVDU, (E)-5-(2-bromovinyl)-2′-deoxyuridine, reference compound]
Inhibition of HSP27 chaperone function (CS aggregation) ([2]; 750 μmol/L): partially cancels the chaperone function of HSP27 | tolerability in patients ([6]; increased administered dose of 760 mg/day): proved disadvantageous for low-weight patients | safety and efficacy in patients ([6]; oral, administered dose of 500 mg/day): works safely and efficiently

pKd [1, 10]: 3.11
Compound: CN(C)CCCN1c2ccccc2Sc2ccc(Cl)cc21 [Chlorpromazine, reference compound]
development of resistance to bortezomib ([4]; bortezomib 0.2-0.4 ng/ml, plus 0.5 μmol/L inhibitor): significantly inhibited
